Laboratory results published in patent US9610294B2, “Methods and compositions for the treatment of fluid accumulation in and/or under the retina” (UNIVERSITE PARIS DESCARTES, priority 2010, dated 2017).
“Also recorded” adds a separate entry of the source.

Key:
[1] = test system: ENaC-α; assay: ENaC-α expression (real-time PCR, western blot) in rat RMG primary cultures and retinal explants; assay type: cell-based
Protocol: (§1) Rat RMG cells were obtained as described (deKozak, Y., Naud, M. C., Bellot, J., Faure, J. P., and Hicks, D. (1994) Differential tumor necrosis factor expression by resident retinal cells from experimental uveitis-susceptible and -resistant rat strains. J Neuroimmunol 55, 1-9). Briefly, rats at postnatal (PN) day 17 (when RMG cells are mature) were sacrificed and eyes enucleated. Intact eyeballs were maintained in DMEM overnight at room temperature in the dark, and then incubated 45 min with 2 mg/ml trypsin/collagenase I at 37° C. The neural retinas were separated from the lens and vitreous, cut into small fragments and plated in Petri dishes containing DMEM supplemented with 10% FCS, 100 units/ml penicillin, 100 µg/ml streptomycin, and 0.2% amphotericin B. Cultures were maintained at 37° C. in a humidified atmosphere containing 5% CO2. After 5 to 6 days, the cultures were washed extensively with medium so that only a strongly adherent flat cell population remained.
(§2) Müller cells were seeded in 6-well tissue culture plates (Becton Dickinson, Le Pont de Claix, France). Rat PN17 RMG cells were maintained in their initial Petri dishes. Sub confluent (80%) cells were incubated in media supplemented with 10% steroid-free (charcoal treated) FCS for 24 hrs. Corticosteroid (Sigma-Aldrich, Saint Quentin Fallavier, France) treatments were then applied respectively for a further 24 hrs: 10 nM aldosterone, 10 nM aldosterone plus 1).IM RU38486 (GR-specific antagonist), 10 nM aldosterone plus 1 µM RU26752 (MR-specific antagonist) or 1 µM dexamethasone. The steroids were previously dissolved in 2% steroid-free FCS media containing 0.1% ethanol. Control cells were treated with 0.1% ethanol in media.
(§3) After enucleation, rat retinas were isolated immediately under aseptic conditions and cut into 4 pieces. They were then transferred onto a Cyclopore 0.2).Im polycarbonate membrane (Whatman, Maidstone, England), and flatmounted with the vitreal side up. The support membranes were placed in 6-well tissue culture plates containing 2 ml DMEM supplemented with 10% steroid-free FCS, 1% penicillin-streptomycin and 0.1% amphotericin B. Explants were treated with corticosteroids as described for cultured cells. Similarly, the dose-dependent effect of aldosterone (0.1-100 nM) was analyzed on retinal explants in separate experiments.
(§4) Total RNA was isolated from the treated RMG cells and retinal explants using RNeasy Mini Kit (Qiagen, Courtaboeuf, France). First-strand cDNA was synthesized after DNase I (Qiagen) treatment using random primers (Invitrogen) and superscript II reverse transcriptase (Invitrogen). Transcript levels of ENaC-a, Kir4.1 and AQP4 were analyzed by real-time PCR performed in 7500 Real-Time PCR System (Applied Biosystems, Foster City, Calif., USA) with either TaqMan® (Applied Biosystems) or SYBR® Green (Invitrogen, Cergy Pontoise, France) detection. The 18S was used as internal control.
(§5) Retinal explants were homogenized in Np40 buffer in the presence of protease inhibitors. The protein concentration was determined by the Bradford method. Equal amounts of protein (12 .ug) were separated on Novex® 4%-12% Tris-Glycine gel (Invitrogen), transferred to nitrocellulose, and the blots were incubated with primary antibodies at 4° C. overnight. The membranes were washed, incubated with horse radish peroxidase conjugated goat anti-rabbit IgG (1:3000, Vector, AbCys, Paris, France) for 1 hr at room temperature, and developed using ECL Plus western blotting detection reagents (GE healthcare, Orsay, France). The j3-actin was used as internal control. The following primary antibodies were used: rabbit anti-alpha ENaC (1:500, Abcam, Cambridge, Mass., USA), rabbit anti-Kir4.1 (1:400, Alomone Labs, Jerusalem, Israel), rabbit anti-AQP4 (1:750, Millipore, St Quentin en Yvelines, France) and rabbit anti-j3-actin (1:1000, Abcam)

[2] = test system: Kir4.1; assay: Kir4.1 expression (real-time PCR, western blot) in rat RMG primary cultures and retinal explants; assay type: cell-based
Protocol: as §1, §2, §3, §4, §5

[3] = test system: retina; assay: Intraocular injection in Brown Norway rats (gain of function mutation in the MR gene): CSCR-like retinal pathology; assay type: in vivo; settings: FIGS. 1 and 2
[4] = 24 hrs treatment, rat RMG primary cultures and retinal explants

C[C@]12CCC(=O)C=C1CC[C@@H]1[C@@H]2[C@@H](O)C[C@]2(C=O)[C@@H](C(=O)CO)CC[C@@H]12 [aldosterone]
ENaC-α subunit mRNA expression [1, 4]: significant up-regulation | dose dependence of ENaC-α transcripts ([1]; aldosterone 0.1-100 nM, retinal explants): dose dependent manner | expression of sodium channel ENaC-a ([1]; aldosterone 24 hrs): 6.5 fold | ENaC-α expression at the protein level ([1]; western blot, retinal explants): up-regulated | Kir4.1 expression (transcripts) [2, 4]: up-regulate | expression of potassium channel Kir4.1 ([2]; aldosterone 24 hrs): 1.9 fold | aldosterone concentration at which increase in Kir4.1 transcripts is fully saturated ([2]; dose-dependent effect, retinal explants): 10 nM | Kir4.1 expression at the protein level ([2]; western blot): up-regulated | retinal pathology after intraocular injection [3]: develop a retinal pathology similar to CSCR; also recorded: vasodilation of choroid vessels, rupture of the junction between RPE cells, swallowing of the photoreceptor segments and sub retinal fluid accumulation; also recorded: develop a retinal pathology very close to CSCR
